Assay: solvent given as SMILES

O=C(O)c1cccc(Cl)c1
solvation free energy, 298 K (in C1CCOC1): -11.2 kcal/mol | solvation free energy, 298 K (in C1COCCO1): -10.9 kcal/mol | solvation free energy, 298 K (in CC(C)CCO): -10.5 kcal/mol | solvation free energy, 298 K (in CC(C)CO): -10.5 kcal/mol | solvation free energy, 298 K (in CC(C)O): -10.7 kcal/mol | solvation free energy, 298 K (in CC(C)OC(C)C): -10.1 kcal/mol | solvation free energy, 298 K (in CCC(C)O): -10.6 kcal/mol | solvation free energy, 298 K (in CCCCCCCCCCO): -10.3 kcal/mol | solvation free energy, 298 K (in CCCCCCCCO): -10.4 kcal/mol | solvation free energy, 298 K (in CCCCCCCO): -10.5 kcal/mol | solvation free energy, 298 K (in CCCCCCO): -10.6 kcal/mol | solvation free energy, 298 K (in CCCCCO): -10.6 kcal/mol | solvation free energy, 298 K (in CCCCCOC(C)=O): -10.1 kcal/mol | solvation free energy, 298 K (in CCCCO): -10.6 kcal/mol | solvation free energy, 298 K (in CCCCOC(C)=O): -10.2 kcal/mol | solvation free energy, 298 K (in CCCO): -10.7 kcal/mol | solvation free energy, 298 K (in CCO): -10.7 kcal/mol | solvation free energy, 298 K (in CCOC(C)=O): -10.4 kcal/mol | solvation free energy, 298 K (in CCOCC): -10.5 kcal/mol | solvation free energy, 298 K (in O): -7.03 kcal/mol

C=CCCCCC
solvation free energy, 298 K (in C1CCC2CCCCC2C1): -4.38 kcal/mol | solvation free energy, 298 K (in C1CCC(C2CCCCC2)CC1): -4.33 kcal/mol | solvation free energy, 298 K (in C=CCCCCCCCCCCCCCC): -4.16 kcal/mol | solvation free energy, 298 K (in CC#N): -3.44 kcal/mol | solvation free energy, 298 K (in CCC#N): -4.05 kcal/mol | solvation free energy, 298 K (in CCCC#N): -3.78 kcal/mol | solvation free energy, 298 K (in CCCCC(CC)COC(=O)CCCCC(=O)OCC(CC)CCCC): -4.03 kcal/mol | solvation free energy, 298 K (in CCCCC(CC)COC(=O)c1ccccc1C(=O)OCC(CC)CCCC): -3.78 kcal/mol | solvation free energy, 298 K (in CCCCCCC): -4.5 kcal/mol | solvation free energy, 298 K (in CCCCCCCCC=CCCCCCCCC(=O)OCC(COC(=O)CCCCCCCC=CCCCCCCCC)OC(=O)CCCCCCCC=CCCCCCCCC): -4.07 kcal/mol | solvation free energy, 298 K (in CCCCCO): -3.93 kcal/mol | solvation free energy, 298 K (in CCCCOC(=O)c1ccccc1C(=O)OCCCC): -3.98 kcal/mol | solvation free energy, 298 K (in CCCCOC(C)=O): -4.28 kcal/mol | solvation free energy, 298 K (in CCN1CCCC1=O): -3.73 kcal/mol | solvation free energy, 298 K (in CCOC(=O)c1ccccc1C(=O)OCC): -3.53 kcal/mol | solvation free energy, 298 K (in CCOC(C)=O): -4.07 kcal/mol | solvation free energy, 298 K (in CN1CCCC1=O): -3.46 kcal/mol | solvation free energy, 298 K (in CN(C)C=O): -3.36 kcal/mol | solvation free energy, 298 K (in CS(C)=O): -2.51 kcal/mol | solvation free energy, 298 K (in N#CCCCCC#N): -2.8 kcal/mol | solvation free energy, 298 K (in N#Cc1ccccc1): -3.92 kcal/mol | solvation free energy, 298 K (in NC=O): -1.24 kcal/mol | solvation free energy, 298 K (in NCCO): -1.63 kcal/mol | solvation free energy, 298 K (in Nc1ccccc1): -3.24 kcal/mol | solvation free energy, 298 K (in O): 1.66 kcal/mol | solvation free energy, 298 K (in O=C1CCCO1): -3 kcal/mol | solvation free energy, 298 K (in O=CN1CCOCC1): -2.89 kcal/mol | solvation free energy, 298 K (in O=Cc1ccco1): -3.2 kcal/mol | solvation free energy, 298 K (in OCCO): -1.45 kcal/mol | solvation free energy, 298 K (in OCCOCCO): -2.1 kcal/mol | solvation free energy, 298 K (in OCCOCCOCCO): -2.27 kcal/mol | solvation free energy, 298 K (in OCCOCCOCCOCCO): -2.4 kcal/mol | solvation free energy, 298 K (in OCc1ccco1): -3.1 kcal/mol | solvation free energy, 298 K (in c1ccc2c(c1)CCCC2): -4.37 kcal/mol | solvation free energy, 298 K (in c1ccc(C2CCCCC2)cc1): -4.31 kcal/mol

CCCCCCCC(C)O (configuration not stated)
solvation free energy, 298 K (in O): -3.57 kcal/mol

COS(C)(=O)=O
solvation free energy, 298 K (in O): -4.87 kcal/mol

Clc1ccc(Cl)c(-c2cc(Cl)ccc2Cl)c1
solvation free energy, 298 K (in CCCCCCCCO): -11.2 kcal/mol | solvation free energy, 298 K (in O): -2.55 kcal/mol

CCOC
solvation free energy, 298 K (in O): -2.1 kcal/mol

CCC(O)CC
solvation free energy, 298 K (in O): -4.35 kcal/mol

CC(C)[N+](=O)[O-]
solvation free energy, 298 K (in CCCCCCC): -3.81 kcal/mol | solvation free energy, 298 K (in ClC(Cl)(Cl)Cl): -4.57 kcal/mol | solvation free energy, 298 K (in O): -3.13 kcal/mol | solvation free energy, 298 K (in c1ccccc1): -5.07 kcal/mol

CC(=O)CC(=O)c1ccccc1
solvation free energy, 298 K (in CCCCCC): -7.72 kcal/mol | solvation free energy, 298 K (in CCCCCCC): -7.87 kcal/mol | solvation free energy, 298 K (in CCCCCCCC): -7.76 kcal/mol | solvation free energy, 298 K (in CCCCCCCCCC): -7.76 kcal/mol

c1ccc2c(c1)OCCOCCOCCOCCOCCO2
solvation free energy, 298 K (in O): -17.9 kcal/mol

CCCCCCCCCCCCCCCCCCCCC
solvation free energy, 298 K (in CC(=O)N(C)C): -14.3 kcal/mol | solvation free energy, 298 K (in CC(C)(C)O): -12.9 kcal/mol | solvation free energy, 298 K (in CN(C)C=O): -14.4 kcal/mol | solvation free energy, 298 K (in O): 4.71 kcal/mol

O=c1[nH]c(=O)[nH]c(=O)[nH]1
solvation free energy, 298 K (in O): -18.1 kcal/mol

O=C(OC1CCCCCC1)c1ccccc1C(=O)OC1CCCCCC1
solvation free energy, 298 K (in O): -8.87 kcal/mol

CCCCC(O)CC (configuration not stated)
solvation free energy, 298 K (in O): -3.94 kcal/mol

O=C(O)CCCCC(=O)O
solvation free energy, 298 K (in CC(C)(C)O): -13.7 kcal/mol | solvation free energy, 298 K (in CC(C)=O): -13.1 kcal/mol | solvation free energy, 298 K (in CC(C)O): -13.5 kcal/mol | solvation free energy, 298 K (in CCCCO): -13.2 kcal/mol | solvation free energy, 298 K (in CCCO): -13.7 kcal/mol | solvation free energy, 298 K (in CCO): -13.7 kcal/mol | solvation free energy, 298 K (in CO): -14 kcal/mol | solvation free energy, 298 K (in O): -12.9 kcal/mol | solvation free energy, 298 K (in O=C1CCCCC1): -12.9 kcal/mol

O=c1cc(-c2ccc(O)c(O)c2)oc2cc(O)cc(O)c12
solvation free energy, 298 K (in CC(C)O): -25.4 kcal/mol | solvation free energy, 298 K (in CCCCO): -25.2 kcal/mol | solvation free energy, 298 K (in CCCO): -25.5 kcal/mol | solvation free energy, 298 K (in CCO): -25.5 kcal/mol

CCCCI
solvation free energy, 298 K (in ClC(Cl)(Cl)Cl): -5.57 kcal/mol | solvation free energy, 298 K (in O): -0.25 kcal/mol

CCCCC(=O)CCCC
solvation free energy, 298 K (in O): -2.64 kcal/mol

C=C(C)C(=C)C
solvation free energy, 298 K (in CN1CCCC1=O): -3.55 kcal/mol | solvation free energy, 298 K (in CN(C)C=O): -3.53 kcal/mol | solvation free energy, 298 K (in O): 0.4 kcal/mol | solvation free energy, 298 K (in OCCO): -1.73 kcal/mol | solvation free energy, 298 K (in OCCOCCO): -2.47 kcal/mol | solvation free energy, 298 K (in OCCOCCOCCO): -2.49 kcal/mol

CCCC(C)(O)CC (configuration not stated)
solvation free energy, 298 K (in CCCCCCCC): -5.4 kcal/mol | solvation free energy, 298 K (in CCCCCCCCCC): -5.34 kcal/mol

O=NN1CCOCC1
solvation free energy, 298 K (in O): -7.78 kcal/mol

Reference: the CombiSolv-Exp solvation set (Vermeire and Green 2021)
